PubChem BioAssay AID1462 (Emory University Molecular Libraries Screening Center, 2008)
Where “and” joins values, the source holds several entries; their conditions need not be identical. Equal entries are not always repeated.

Molecular target: Protein GrpE (Escherichia coli (strain K12)) (UniProt P09372)
Experiment: inhibition of DnaK/DnaJ/GrpE luciferase refolding – biochemical, luminescence, E. coli K12, dose response (AID 1462)
Settings: DnaK/DnaJ/GrpE denatured luciferase refolding

Protein GrpE (Escherichia coli (strain K12)), sequence (P09372 whole entry, looked up): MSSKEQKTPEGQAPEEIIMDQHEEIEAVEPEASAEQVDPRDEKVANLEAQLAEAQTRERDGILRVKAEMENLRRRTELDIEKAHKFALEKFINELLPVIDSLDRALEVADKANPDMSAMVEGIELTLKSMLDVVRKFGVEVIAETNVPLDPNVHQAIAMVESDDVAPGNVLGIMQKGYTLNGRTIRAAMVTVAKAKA

Nc1c(S(=O)(=O)O)cc(Nc2ccc(Nc3nc(Cl)nc(Nc4ccc(S(=O)(=O)O)cc4)n3)c(S(=O)(=O)O)c2)c2c1C(=O)c1ccccc1C2=O
IC50: 1.66 µM and 0.551 µM
